Molecular target: T1, GPR35 (Homo sapiens, UniProt Q9HC97)
T1 construct: host or cells: PathHunter GPR35 cell line
Assay: GPR35 activation, PathHunter β-Arrestin assay (DiscoverX)
Format: cell-based
Details: β-arrestin recruitment; for EC50: β-Gal enzyme fragment complementation, chemiluminescence, highest concentration 10 mM, 3× dilutions, duplicate; for activation of GPR35 (result in words): highest concentration tested 10 mM
Description: Six human milk oligosaccharides (LNnT, LNT, 2′-FL, DFL, 6′-SL and 3′-SL) were screened for their ability to activate the GPR35 receptor in an in vitro assay. The screening was conducted by DiscoverX (Fremont, Calif., USA) using the PathHunter β-Arresin assay. This assay monitored the activation of GPR35 expressed in cultured cells, using Enzyme Fragment Complementation with β-galactosidase (β-Gal) as the functional reporter. […] EA was fused to […]. When the GPR35 is activated and β-Arrestin is recruited to the receptor, PK and EA complementation occurs, restoring β-Gal activity, which was measured using chemiluminescent Detection Reagents.
The GPR35 cell line was expanded from frozen stocks and cultured according to standard procedures. Cells were seeded in a total volume of 20 μl into white walled, 384-well microplates and incubated at 37° C. for the appropriate time prior to testing. All of the testings were done in duplicate.
HMO samples were shipped to DiscoverX as concentrated stocks in Phosphate Buffered saline. On the test day, a 5× compound working intermediate was prepared in PBS. Five μl of 5× sample were added to cells and incubated at room temperature for 3 to 5 hours.
Assay signal was generated through a single addition of 12.5 μl (50 v/v %) of PathHunter Detection reagent cocktail, followed by one-hour incubation at room temperature. Microplates were read following signal generation with a PerkinElmer Envision™ instrument for chemiluminescent signal detection. Zaprinast (which is known to be an activator of GPR35) was used as positive control. Dose-responses were generated by iterative 3× dilutions of the highest concentration tested (10 mM).

T1 sequence (Q9HC97 whole entry): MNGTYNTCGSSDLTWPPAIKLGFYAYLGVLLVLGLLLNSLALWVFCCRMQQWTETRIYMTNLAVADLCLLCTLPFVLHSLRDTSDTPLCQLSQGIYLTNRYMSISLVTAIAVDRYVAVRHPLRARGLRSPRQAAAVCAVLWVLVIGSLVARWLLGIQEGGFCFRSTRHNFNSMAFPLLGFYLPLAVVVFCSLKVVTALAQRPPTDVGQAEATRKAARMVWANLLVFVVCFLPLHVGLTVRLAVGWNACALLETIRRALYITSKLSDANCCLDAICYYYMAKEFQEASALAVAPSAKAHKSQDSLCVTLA

Structure (SMILES)	EC50	activation of GPR35 (result in words)
CC(=O)N[C@H]1[C@H](O[C@H]2[C@@H](O)[C@@H](CO)O[C@@H](O[C@H]3[C@H](O)[C@@H](O)C(O)O[C@@H]3CO)[C@@H]2O)O[C@H](CO)[C@@H](O)[C@@H]1O[C@@H]1O[C@H](CO)[C@H](O)[C@H](O)[C@H]1O (some centres unmarked) [LNT, lacto-N-tetraose]	4.5 mM	
CC(=O)N[C@H]1[C@H]([C@H](O)[C@H](O)CO)O[C@@](O[C@H]2[C@@H](O)[C@@H](CO)O[C@@H](O[C@H]3[C@H](O)[C@@H](O)C(O)O[C@@H]3CO)[C@@H]2O)(C(=O)O)C[C@@H]1O (some centres unmarked) [3′-SL, 3′-sialyllactose]		No activation
C[C@@H]1O[C@@H](O[C@H]2[C@H](O[C@H]3[C@H](O[C@@H]4O[C@@H](C)[C@@H](O)[C@@H](O)[C@@H]4O)[C@@H](O)C(O)O[C@@H]3CO)O[C@H](CO)[C@H](O)[C@@H]2O)[C@@H](O)[C@H](O)[C@@H]1O (some centres unmarked) [DFL, difucosyllactose]		No activation
CC(=O)N[C@H]1[C@H]([C@H](O)[C@H](O)CO)O[C@@](OC[C@H]2O[C@@H](O[C@H]3[C@H](O)[C@@H](O)[C@H](O)O[C@@H]3CO)[C@H](O)[C@@H](O)[C@H]2O)(C(=O)O)C[C@@H]1O [6′-SL, 6′-sialyllactose]	6.5 mM	
CC(=O)N[C@H]1[C@H](O[C@H]2[C@@H](O)[C@@H](CO)O[C@@H](O[C@H]3[C@H](O)[C@@H](O)C(O)O[C@@H]3CO)[C@@H]2O)O[C@H](CO)[C@@H](O[C@@H]2O[C@H](CO)[C@H](O)[C@H](O)[C@H]2O)[C@@H]1O (mixture of isomers) [LNnT, lacto-N-neotetraose]		No activation
